From patent publication US10080366B2, “Agent for increasing sugar content in fruit” (RIKEN, priority 2012, dated 2018)
Read-outs that look alike come from different tables or passages of the source.

Experiments:
[1] = tested on: fruit of grape in a farm field
Description: To the fruit of grape in a farm field before harvest, potassium hydrogen carbonate diluted with water to a concentration of 10 g/L (Table 17) or 20 g/L (Table 18) was applied three times in total at intervals of 7 days. The grape was harvested 21 days after the first application, and the masses of amino acids contained in each of the fruit of grape treated with potassium hydrogen carbonate and untreated fruit of grape were measured. In addition, the degree of increase in the concentration of each amino acid in the grape treated with potassium hydrogen carbonate in comparison with the concentration of the amino acid in the untreated grape was determined as a ratio of “the concentration of the amino acid in the grape treated with potassium hydrogen carbonate/the concentration of the amino acid in the untreated grape.” Moreover, the sugar contents in the grape treated with potassium hydrogen carbonate and the untreated grape were also measured, and the ratio (the sugar content in the grape treated with potassium hydrogen carbonate/the sugar content in the untreated grape) was determined.
Arg: arginine, GluNH2: glutamine, Orn: ornithine, Ala: alanine, NH3: ammonia, Cit: citrulline, AspNH2: asparagine, a-ABA: α-amino-n-butyric acid, Glu: glutamic acid, Asp: aspartic acid, Thr: threonine, Ser: serine, Lys: lysine, His: histidine, Gly: glycine, Phe: phenylalanine, Sar: sarcosine, Val: valine, Cys: cysteine, b-AiBA: β-aminoisobutyric acid, PEA: phosphoethanolamine, a-AAA: α-aminoadipic acid, EOHNH2: ethanolamine, b-Ala: β-alanine, Leu: leucine, g-ABA: […], Ile: isoleucine, Met: methionine, Urea: urea, Trp: tryptophan, Tyr: tyrosine, and Cysthi: cystathionine.

Tomato = conditions: dilution ratio 100 (10 g/L); 6 days after treatment

O=C([O-])O.[K+] [Potassium hydrogen carbonate, potassium hydrogen carbonate]
Ala, Ratio treated/untreated ([1]; 10 g/L x3): 5.229
Ala, Treated Mass ([1]; 10 g/L x3): 601.952 ng
Arg, Ratio treated/untreated ([1]; 10 g/L x3): 10.658
Asp, Ratio treated/untreated ([1]; 10 g/L x3): 2.694
Asp, Treated Mass ([1]; 10 g/L x3): 89.293 ng
AspNH2, Ratio treated/untreated ([1]; 10 g/L x3): 3.987
AspNH2, Treated Mass ([1]; 10 g/L x3): 14.746 ng
Cit, Ratio treated/untreated ([1]; 10 g/L x3): 4.673
Cit, Treated Mass ([1]; 10 g/L x3): 11.464 ng
Cys, Ratio treated/untreated ([1]; 10 g/L x3): 1.154
Cys, Treated Mass ([1]; 10 g/L x3): 117.021 ng
Cysthi, Ratio treated/untreated ([1]; 10 g/L x3): 0.457
Cysthi, Treated Mass ([1]; 10 g/L x3): 1.016 ng
EOHNH2, Ratio treated/untreated ([1]; 10 g/L x3): 1.02
EOHNH2, Treated Mass ([1]; 10 g/L x3): 53.297 ng
Glu, Ratio treated/untreated ([1]; 10 g/L x3): 2.915
Glu, Treated Mass ([1]; 10 g/L x3): 1091.265 ng
GluNH2, Ratio treated/untreated ([1]; 10 g/L x3): 7.046
GluNH2, Treated Mass ([1]; 10 g/L x3): 347.152 ng
Gly, Ratio treated/untreated ([1]; 10 g/L x3): 1.553
Gly, Treated Mass ([1]; 10 g/L x3): 25.939 ng
His, Ratio treated/untreated ([1]; 10 g/L x3): 1.615
His, Treated Mass ([1]; 10 g/L x3): 96.252 ng
Ile, Ratio treated/untreated ([1]; 10 g/L x3): 0.875
Ile, Treated Mass ([1]; 10 g/L x3): 72.435 ng
Leu, Ratio treated/untreated ([1]; 10 g/L x3): 1.012
Leu, Treated Mass ([1]; 10 g/L x3): 110.503 ng
Lys, Ratio treated/untreated ([1]; 10 g/L x3): 1.768
Lys, Treated Mass ([1]; 10 g/L x3): 18.865 ng
Met, Ratio treated/untreated ([1]; 10 g/L x3): 0.839
Met, Treated Mass ([1]; 10 g/L x3): 6.131 ng
NH3, Ratio treated/untreated ([1]; 10 g/L x3): 4.713
NH3, Treated Mass ([1]; 10 g/L x3): 438.689 ng
Orn, Ratio treated/untreated ([1]; 10 g/L x3): 6.692
Orn, Treated Mass ([1]; 10 g/L x3): 23.882 ng
PEA, Ratio treated/untreated ([1]; 10 g/L x3): 1.032
PEA, Treated Mass ([1]; 10 g/L x3): 87.942 ng
Phe, Ratio treated/untreated ([1]; 10 g/L x3): 1.527
Phe, Treated Mass ([1]; 10 g/L x3): 51.201 ng
Sar, Ratio treated/untreated ([1]; 10 g/L x3): 1.271
Sar, Treated Mass ([1]; 10 g/L x3): 62.178 ng
Ser, Ratio treated/untreated ([1]; 10 g/L x3): 2.585
Ser, Treated Mass ([1]; 10 g/L x3): 360.511 ng
Sugar content, Ratio treated/untreated ([1]; 10 g/L x3): 1.06
Sugar content, Treated ([1]; 10 g/L x3): 22.6%
Thr, Ratio treated/untreated ([1]; 10 g/L x3): 2.615
Thr, Treated Mass ([1]; 10 g/L x3): 342.259 ng
Total, Ratio treated/untreated ([1]; 10 g/L x3): 2.203
Total, Treated Mass ([1]; 10 g/L x3): 1082.09 ng
Trp, Ratio treated/untreated ([1]; 10 g/L x3): 0.641
Trp, Treated Mass ([1]; 10 g/L x3): 4.840 ng
Tyr, Ratio treated/untreated ([1]; 10 g/L x3): 0.59
Tyr, Treated Mass ([1]; 10 g/L x3): 17.739 ng
Urea, Ratio treated/untreated ([1]; 10 g/L x3): 0.757
Urea, Treated Mass ([1]; 10 g/L x3): 105.062 ng
Val, Ratio treated/untreated ([1]; 10 g/L x3): 1.256
Val, Treated Mass ([1]; 10 g/L x3): 191.700 ng
a-AAA, Ratio treated/untreated ([1]; 10 g/L x3): 1.031
a-AAA, Treated Mass ([1]; 10 g/L x3): 3.261 ng
a-ABA, Ratio treated/untreated ([1]; 10 g/L x3): 3.246
a-ABA, Treated Mass ([1]; 10 g/L x3): 9.038 ng
b-AiBA, Ratio treated/untreated ([1]; 10 g/L x3): 1.129
b-AiBA, Treated Mass ([1]; 10 g/L x3): 9.663 ng
b-Ala, Ratio treated/untreated ([1]; 10 g/L x3): 1.019
b-Ala, Treated Mass ([1]; 10 g/L x3): 197.064 ng
g-ABA, Ratio treated/untreated ([1]; 10 g/L x3): 0.891
g-ABA, Treated Mass ([1]; 10 g/L x3): 637.915 ng
Arg, Treated Mass ([1]; 10 g/L x3, harvest 21 days after first application): 1383.991 ng
1Mehis, Ratio treated/untreated ([1]; 20 g/L x3): 1.167
1Mehis, Treated Mass ([1]; 20 g/L x3): 1.184 ng
Ala, Ratio treated/untreated ([1]; 20 g/L x3): 6.161
Ala, Treated Mass ([1]; 20 g/L x3): 709.236 ng
Arg, Ratio treated/untreated ([1]; 20 g/L x3): 15.532
Asp, Ratio treated/untreated ([1]; 20 g/L x3): 2.614
Asp, Treated Mass ([1]; 20 g/L x3): 86.648 ng
AspNH2, Ratio treated/untreated ([1]; 20 g/L x3): 7.214
AspNH2, Treated Mass ([1]; 20 g/L x3): 26.684 ng
Cit, Ratio treated/untreated ([1]; 20 g/L x3): 12.285
Cit, Treated Mass ([1]; 20 g/L x3): 30.134 ng
Cys, Ratio treated/untreated ([1]; 20 g/L x3): 1.41
Cys, Treated Mass ([1]; 20 g/L x3): 142.979 ng
Cysthi, Ratio treated/untreated ([1]; 20 g/L x3): 0.3
Cysthi, Treated Mass ([1]; 20 g/L x3): 0.667 ng
EOHNH2, Ratio treated/untreated ([1]; 20 g/L x3): 1.164
EOHNH2, Treated Mass ([1]; 20 g/L x3): 76.497 ng
Glu, Ratio treated/untreated ([1]; 20 g/L x3): 1.85
Glu, Treated Mass ([1]; 20 g/L x3): 693.282 ng
GluNH2, Ratio treated/untreated ([1]; 20 g/L x3): 11.395
GluNH2, Treated Mass ([1]; 20 g/L x3): 561.408 ng
Gly, Ratio treated/untreated ([1]; 20 g/L x3): 1.847
Gly, Treated Mass ([1]; 20 g/L x3): 34.546 ng
His, Ratio treated/untreated ([1]; 20 g/L x3): 2.312
His, Treated Mass ([1]; 20 g/L x3): 137.818 ng
Ile, Ratio treated/untreated ([1]; 20 g/L x3): 1.149
Ile, Treated Mass ([1]; 20 g/L x3): 95.120 ng
Leu, Ratio treated/untreated ([1]; 20 g/L x3): 1.387
Leu, Treated Mass ([1]; 20 g/L x3): 151.405 ng
Lys, Ratio treated/untreated ([1]; 20 g/L x3): 2.452
Lys, Treated Mass ([1]; 20 g/L x3): 26.170 ng
Met, Ratio treated/untreated ([1]; 20 g/L x3): 1.325
Met, Treated Mass ([1]; 20 g/L x3): 9.698 ng
NH3, Ratio treated/untreated ([1]; 20 g/L x3): 4.845
NH3, Treated Mass ([1]; 20 g/L x3): 450.976 ng
Orn, Ratio treated/untreated ([1]; 20 g/L x3): 11.668
Orn, Treated Mass ([1]; 20 g/L x3): 41.643 ng
PEA, Ratio treated/untreated ([1]; 20 g/L x3): 1.644
PEA, Treated Mass ([1]; 20 g/L x3): 140.112 ng
Phe, Ratio treated/untreated ([1]; 20 g/L x3): 1.961
Phe, Treated Mass ([1]; 20 g/L x3): 65.750 ng
Sar, Ratio treated/untreated ([1]; 20 g/L x3): 1.5191
Sar, Treated Mass ([1]; 20 g/L x3): 74.309 ng
Ser, Ratio treated/untreated ([1]; 20 g/L x3): 3.553
Ser, Treated Mass ([1]; 20 g/L x3): 495.547 ng
Sugar content, Ratio treated/untreated ([1]; 20 g/L x3): 1.24
Sugar content, Treated ([1]; 20 g/L x3): 25.9%
Thr, Ratio treated/untreated ([1]; 20 g/L x3): 3.174
Thr, Treated Mass ([1]; 20 g/L x3): 415.421 ng
Total, Ratio treated/untreated ([1]; 20 g/L x3): 2.525
Total, Treated Mass ([1]; 20 g/L x3): 1239.923 ng
Trp, Ratio treated/untreated ([1]; 20 g/L x3): 0.973
Trp, Treated Mass ([1]; 20 g/L x3): 7.348 ng
Tyr, Ratio treated/untreated ([1]; 20 g/L x3): 0.994
Tyr, Treated Mass ([1]; 20 g/L x3): 29.898 ng
Val, Ratio treated/untreated ([1]; 20 g/L x3): 1.587
Val, Treated Mass ([1]; 20 g/L x3): 242.163 ng
a-AAA, Ratio treated/untreated ([1]; 20 g/L x3): 1.408
a-AAA, Treated Mass ([1]; 20 g/L x3): 4.352 ng
a-ABA, Ratio treated/untreated ([1]; 20 g/L x3): 3.555
a-ABA, Treated Mass ([1]; 20 g/L x3): 9.898 ng
b-AiBA, Ratio treated/untreated ([1]; 20 g/L x3): 1.12
b-AiBA, Treated Mass ([1]; 20 g/L x3): 9.588 ng
b-Ala, Ratio treated/untreated ([1]; 20 g/L x3): 1.202
b-Ala, Treated Mass ([1]; 20 g/L x3): 232.373 ng
g-ABA, Ratio treated/untreated ([1]; 20 g/L x3): 1.811
g-ABA, Treated Mass ([1]; 20 g/L x3): 1298.441 ng
Arg, Treated Mass ([1]; 20 g/L x3, harvest 21 days after first application): 2018.4554 ng
Ratio (%) of decrease in body weight of fruit (Tomato): 14.8%
